Experimental data from USRE47954E1, “Combination therapy with peptide epoxyketones” (priority 2008, dated 2020).
Like-named read-outs stand apart in the source and are kept apart here.

Legend:
[1] = Description: Toxicity Studies: 4-6 weeks old female BNX mice were treated with chemotherapeutic agents of multiple classes as monotherapy or in combination with carfilzomib. Two weeks toxicity studies were performed at doses and dose schedules as mentioned in the figure legend. Toxicity was measured as body weight loss three times a week.
The dose schedule as shown in FIG. 2A was Doxil day 1 (iv), after one hour Compound 1 day 1, 2 (iv).
The dose schedule as shown in FIG. 5A was docetaxel day 1 (iv), after one hour Compound 1 day 1, 2 (iv).

ES2 tumors = assay: ES2 ovarian xenograft (FIG. 10); type: in vivo, BNX mice; conditions: in combination with vorinostat (50 mg/kg), ovarian cancer model
Description: (§1) Statistical significance was achieved when p<0.05.
(§2) The effect of the combination of Compound 1 (3 mg/kg) and vorinostat (50 mg/kg) (n=8/group) on established RL tumors is shown in FIG. 9 (arrow indicates start of dosing period). The effect of the combination of Compound 1 (3 mg/kg) and vorinostat (50 mg/kg) (n=8/group) on established ES2 tumors. **, P<0.01; and ***, P<0.001 vs monotherapy and vehicle is shown in FIG. 10 (arrow indicates start of dosing period).

[2] = test system: relapsed multiple myeloma patients; assay: Phase Ib dose escalation study of carfilzomib plus lenalidomide and low-dose dexamethasone; type: in vivo; conditions: preliminary
Description: Within the first three cohorts, seventeen patients were evaluable for response and toxicity.

RL human lymphoma cells = assay: RL human lymphoma xenograft, Example 1 (FIG. 1); type: in vivo, Immunocompromised mice (BNX); conditions: Compound 1 IV Days 1 and 2 each week + SAHA IP Days 1-5 each week; two-way ANOVA, Bonferroni
Description: Immunocompromised mice (BNX, Charles River Laboratories) were challenged with subcutaneous administration of RL human lymphoma cells (1×10^7/mouse) on the right flank in a total volume of 0.1 mL phosphate buffered saline (PBS). When tumors were approximately 50 mm^3 in size (as indicated by the arrow in FIG. 1), mice were randomized to treatment groups (9 mice/group). Compound 1 was administered intravenously (IV) in a solution of 10% (w/v) sulfobutylether-betacyclodextrin in aqueous 10 mM citrate buffer pH 3.5. Administration was given on Days 1 and 2 each week. SAHA was formulated in 100% DMSO and administered intraperiotoneally (IP) on Days 1-5 each week. ***=P<0.001 (Compound 1+SAHA vs. Vehicle) by two-way ANOVA and Bonferroni post-hoc comparisons.

[3] = test system: HT29 colorectal xenograft; assay: HT29 colorectal xenograft model (FIG. 3)
Description: (§3) Xenograft studies: Tumors were established by subcutaneous (s.c.) injection of cell lines (passage number <9 and viability >95% at the time of implantation) in the right flank of BNX mice (n=8/9 per group). RL (0.1 mL) cell suspensions containing 1×10^7 cells. 5×10^6 cell suspension (0.1 mL) were injected in case of HT-29, ES2 and A549 cells. Mice were randomized into treatment groups and dosing initiated when tumors size was approximately 100 mm^3. In all treatment groups, tumors were measured three times weekly by recording the longest perpendicular diameters and tumor volumes were calculated using the equation V (mm^3)=(length×width^2)/2.
(§4) Statistical analysis: For comparisons of treatment groups, a two-way ANOVA followed by Bonferroni post hoc analysis using GraphPad Prism Software (version 4.01) was performed. Statistical significance was achieved when p<0.05.

[4] = test system: A549 non-small cell lung cancer xenograft; assay: A549 non-small cell lung cancer xenograft model (FIG. 4, 6, 7); type: in vivo, BNX mice
Description: as §3, §4

RL tumors = assay: RL lymphoma xenograft, Example 2 (FIG. 9); type: in vivo, BNX mice
Description: as §1, §2

[5] = test system: MM1.S (multiply myeloma, dexamethasone sensitive) cells; assay: Cell titer glo viability, combination index with melphalan (FIG. 11); type: cell-based; conditions: Compound 1 6.58 nM + melphalan 11.1, 7.4, 4.9 and 3.3 μM; melphalan pretreatment 24 hours, then Compound 1 24 hours
Description: Compound 1 was tested at 6.58 nM in combination with melphalan at four different doses: 11.1, 7.4, 4.9 and 3.3 μM. MM1.S (multiply myeloma, dexamethasone sensitive) cells were plated at 200,000 cells/mL in 45 μL then pretreated with melphalan for 24 hours. Compound 1 was then added and the cells were incubated for an additional 24 hours at 6.58 nM. A 1:1 ratio of Cell titer glo solution was then added to the cell samples and read for viability. Combination index values were calculated using the Calcusyn program where values <0.9=synergy, 0.9-1.0=additive and >1.1=antagonistic.

[6] = combination Compound 1 (5 mg/kg) + Doxil (3 mg/kg)
[7] = combination Compound 1 at MTD (5 mg/kg) + docetaxel (5 mg/kg), FIG. 6
[8] = combination Compound 1 at sub-MTD (3 mg/kg) + sub-MTD docetaxel (5 mg/kg), FIG. 7
[9] = combination of Compound 1 and vorinostat

Structure (SMILES): CC(=O)O[C@@]12CO[C@@H]1C[C@H](O)[C@@]1(C)C(=O)[C@H](O)C3=C(C)[C@@H](OC(=O)[C@H](O)[C@@H](NC(=O)OC(C)(C)C)c4ccccc4)C[C@@](O)([C@@H](OC(=O)c4ccccc4)[C@H]21)C3(C)C [docetaxel, reference compound]
- MTD ([1]; docetaxel in combination with carfilzomib, docetaxel day 1 (iv), Compound 1 day 1, 2 (iv)): 10 mg/kg

Structure (SMILES): CC(C)C[C@H](NC(=O)[C@H](CCc1ccccc1)NC(=O)CN1CCOCC1)C(=O)N[C@@H](Cc1ccccc1)C(=O)N[C@@H](CC(C)C)C(=O)[C@@]1(C)CO1 [Compound 1, carfilzomib]
- anti-tumor property of combination (ES2 tumors): effective anti-tumor property
- maximum tolerated dose (MTD) ([2]; first three cohorts): not yet reached
- Responses [2]: durable
- MTD ([1]; carfilzomib QDx2 (iv)): 5 mg/kg
- tumor volume, P (Compound 1+SAHA vs. Vehicle) (RL human lymphoma cells): < 0.001
- anti-tumor effect of combination ([3]; Compound 1 and Doxil at sub-MTD doses, solid tumor model): synergistic anti-tumor effect
- tumor burden ([3]; Compound 1 and Doxil combination, HT-29 xenograft model): significantly reduced tumor burden
- anti-tumor activity ([3]; Compound 1 at MTD (5 mg/kg) and sub-MTD of Doxil (3 mg/kg)): increased anti-tumor activity
- tumor size, p vs. Doxil alone [3, 6]: < 0.01
- tumor size, p vs. control or carfilzomib alone [3, 6]: < 0.001
- tumor size, p vs. control or Doxil alone [4, 6]: < 0.001
- tumor size, significance vs. carfilzomib alone [4, 6]: No significance
- tumor size, p vs. carfilzomib alone [4, 7]: < 0.05
- tumor size, p vs. control [4, 7]: < 0.001
- tumor size, p vs. carfilzomib and docetaxel [4, 8]: < 0.01
- tumor size, p vs. control [4, 8]: < 0.001
- A549 tumor growth ([4]; combination with docetaxel, compared to vehicle controls or either single agent): significant reduction
- anti-tumor effect of combination ([4]; in combination with docetaxel at sub-MTD doses, human lung cancer model): synergistic anti-tumor effect
- RL tumor growth, p vs. Compound 1 or vorinostat alone (RL tumors; [9]): < 0.01
- RL tumor growth, p vs. control (RL tumors; [9]): < 0.001
- lymphoma (RL) tumor growth (RL tumors; combination with vorinostat, compared to vehicle controls or either single agent, Compound 1 3 mg/kg, vorinostat 50 mg/kg): significant reduction
- anti-tumor effect of combination (RL tumors; in combination with vorinostat, lymphoma model): synergistic anti-tumor effect
- combination effect (combination index, Calcusyn) [5]: synergistic and additive effects
